Results on 23 molecules are retold here after US10829458B2 (Araxes Pharma LLC, priority 2015, dated 2020).

This experiment has as its target T1, KRAS G12C 1-169, his-tagged protein, GDP-loaded (Homo sapiens, UniProt P01116, G12C).
T1 construct: KRAS G12C 1-169, his-tagged protein, GDP-loaded
In words: Biochemical assay: covalent modification of KRAS G12C measured by mass spectrometry (RapidFire/TOF or Q-Exactive). The note with it: covalent binding to KRAS G12C. The essentials:
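Covalent adduct formation read by intact-mass spectrometry (TOF or Q Exactive Plus, charge envelopes deconvoluted into modified and unmodified species) after formic acid quench. Reactions contained 2 μM GDP-bound KRAS G12C 1-169 (his-tag) in Hepes/NaCl/MgCl2 buffer plus 10, 30 or 100 μM final compound, held 30 min, 2 h or 24 h at room temperature.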

As to `C=CC(=O)N1CCN(c2nc(OCCn3ccnc3)nc3c(F)c(-c4c(C)ccc5[nH]ncc45)c(Cl)cc23)CC1` [Example I-7, 1-(4-(2-(2-(1H-imidazol-1-yl)ethoxy)-6-chloro-8-fluoro-7-(5-methyl-1H-indazol-4-yl)quinazolin-4-yl)piperazin-1-yl)prop-2-en-1-one], the Binding % entry (compounds of structure (I)) is listed as “++ (++ indicates binding activity from 50 to 90%)”.

For `C=CC(=O)N1CCN(c2nc(OCCN3CCOCC3)nc3c(F)c(-c4c(C)ccc5[nH]ncc45)c(Cl)cc23)CC1` (atropisomer, axis not shown) [Example I-32, (S)-1-(4-(6-chloro-8-fluoro-7-(5-methyl-1H-indazol-4-yl)-2-(2-morpholino-ethoxy)quinazolin-4-yl)piperazin-1-yl)prop-2-en-1-one], for the setting “compounds of structure (I)”, the Binding % result is “+ (+ indicates binding activity up to 50%)”.

As to `C=CC(=O)N1CCN(c2nc(OC3CCN(C)CC3)nc3c(F)c(-c4cc(O)cc5ccccc45)c(Cl)cc23)CC1` [Example I-93, 1-(4-(6-chloro-8-fluoro-7-(3-hydroxy-naphthalen-1-yl)-2-(1-methyl-piperidin-4-yloxy)quinazolin-4-yl)piperazin-1-yl)prop-2-en-1-one], the Binding % result (compounds of structure (I)) was “+++ (+++ indicates binding activity greater than 90%)”.

Consider `C=CC(=O)N1CCN(c2nc(N3CC4(CN(C)C4)C3)nc3c(F)c(-c4c(C)ccc5[nH]ncc45)c(Cl)cc23)CC1` [Example I-157, 1-(4-(6-chloro-8-fluoro-7-(5-methyl-1H-indazol-4-yl)-2-(6-methyl-2,6-diazaspiro [3.3]heptan-2-yl)quinazolin-4-yl)piperazin-1-yl) prop-2-en-1-one], for which the Binding % result (compounds of structure (I)) was “+++ (+++ indicates binding activity greater than 90%)”. As for `C=CC(=O)N1CCN(c2nc(OCCN3CCOCC3)nc3c(F)c(-c4c(O)cccc4F)c(Cl)cc23)CC1` (atropisomer, axis not shown) [Example I-29, (S)-1-(4-(6-chloro-8-fluoro-7-(2-fluoro-6-hydroxyphenyl)-2-(2-morpholino-ethoxy)quinazolin-4-yl)piperazin-1-yl)prop-2-en-1-one], the Binding % result (compounds of structure (I)) is given as “+++ (+++ indicates binding activity greater than 90%)”. As for `C=CC(=O)N1CCN(c2nc(N3CC4(COC4)C3)nc3c(F)c(-c4c(O)cccc4F)c(Cl)cc23)CC1` [Example I-148, 1-(4-(6-chloro-8-fluoro-7-(2-fluoro-6-hydroxyphenyl)-2-(2-oxa-6-azaspiro[3.3]heptan-6-yl)quinazolin-4-yl)piperazin-1-yl) prop-2-en-1-one], the Binding % result (compounds of structure (I)) is “+++ (+++ indicates binding activity greater than 90%)”. In the case of `C=CC(=O)N1CCN(c2nc(NC3CCCN(C(C)C)C3)nc3c(F)c(-c4c(O)cccc4F)c(Cl)cc23)CC1` (centres unmarked) [Example I-121, 1-(4-(6-chloro-8-fluoro-7-(2-fluoro-6-hydroxyphenyl)-2-(1-isopropyl-piperidin-3-ylamino)quinazolin-4-yl)piperazin-1-yl) prop-2-en-1-one], the Binding % entry (compounds of structure (I)) was “+++ (+++ indicates binding activity greater than 90%)”.

Turning to `C=CC(=O)N1CCN(c2nc(OCCN3CCC3)nc3c(F)c(-c4c(O)cccc4F)c(Cl)cc23)CC1` [Example I-43, 1-(4-(2-(2-(azetidin-1-yl)ethoxy)-6-chloro-8-fluoro-7-(2-fluoro-6-hydroxyphenyl)quinazolin-4-yl)piperazin-1-yl) prop-2-en-1-one], the Binding % result (compounds of structure (I)) is listed as “+++ (+++ indicates binding activity greater than 90%)”. With `C=CC(=O)N1CCN(c2nc(OCCS(C)(=O)=O)nc3c(F)c(-c4c(O)cccc4F)c(Cl)cc23)CC1` [Example I-113, 1-(4-(6-chloro-8-fluoro-7-(2-fluoro-6-hydroxyphenyl)-2-(2-(methyl-sulfonyl)ethoxy)quinazolin-4-yl)piperazin-1-yl) prop-2-en-1-one], the Binding % result (compounds of structure (I)) is “+++ (+++ indicates binding activity greater than 90%)”.

`C=CC(=O)N1CCN(c2nc(NCCN3CC(F)(F)C3)nc3c(F)c(-c4c(O)cccc4F)c(Cl)cc23)CC1` [Example I-143, 1-(4-(6-chloro-2-(2-(3,3-difluoro-azetidin-1-yl)ethylamino)-8-fluoro-7-(2-fluoro-6-hydroxyphenyl)quinazolin-4-yl)piperazin-1-yl) prop-2-en-1-one]: under “compounds of structure (I)”, the Binding % result is reported as “+++ (+++ indicates binding activity greater than 90%)”. As to `C=CC(=O)N1CCN(c2nc(OCCN(C)C)nc3c(F)c(-c4cc(O)cc5ccccc45)c(Cl)cc23)CC1` (atropisomer, axis not shown) [Example I-95, (S)-1-(4-(6-chloro-2-(2-(dimethylamino)ethoxy)-8-fluoro-7-(3-hydroxy-naphthalen-1-yl)quinazolin-4-yl)piperazin-1-yl)prop-2-en-1-one], the Binding % entry (compounds of structure (I)) is listed as “+++ (+++ indicates binding activity greater than 90%)”.

Turning to `C=CC(=O)N1CCN(c2nc(OCCN3CCC(F)CC3)nc3c(F)c(-c4c(O)cccc4F)c(Cl)cc23)CC1` [Example I-76, 1-(4-(6-chloro-8-fluoro-7-(2-fluoro-6-hydroxyphenyl)-2-(2-(4-fluoro-piperidin-1-yl)ethoxy)quinazolin-4-yl)piperazin-1-yl)prop-2-en-1-one], the Binding % result (compounds of structure (I)) is given as “+++ (+++ indicates binding activity greater than 90%)”.

Regarding `C=CC(=O)N1CCN(c2nc(OC3CCN(C(C)C)CC3)nc3c(F)c(-c4c(C)ccc5[nH]ncc45)c(Cl)cc23)CC1` [Example I-193, 1-(4-(6-chloro-8-fluoro-2-((1-isopropyl-piperidin-4-yl)oxy)-7-(5-methyl-1H-indazol-4-yl)quinazolin-4-yl)piperazin-1-yl) prop-2-en-1-one], the Binding % result (compounds of structure (I)) is given as “+++ (+++ indicates binding activity greater than 90%)”. Regarding `C=CC(=O)N1CCN(c2ncnc3c(F)c(-c4c(O)ccc(F)c4F)c(Cl)cc23)CC1` [II-3, 1-(4-(6-chloro-7-(2,3-difluoro-6-hydroxyphenyl)-8-fluoroquinazolin-4-yl)piperazin-1-yl)prop-2-en-1-one], the Binding % result (compounds of structure (II)) was “+++ (+++ indicates binding activity of 75% or greater)”. Turning to `CN(C)C/C=C/C(=O)N1CCN(c2nc(OCCN3CCOCC3)nc3c(F)c(-c4c(O)cccc4F)c(Cl)cc23)CC1` [Example I-74, (E)-1-(4-(6-chloro-8-fluoro-7-(2-fluoro-6-hydroxyphenyl)-2-(2-morpholino-ethoxy)quinazolin-4-yl)piperazin-1-yl)-4-(dimethyl-amino)but-2-en-1-one], the Binding % result (compounds of structure (I)) was “+++ (+++ indicates binding activity greater than 90%)”. On to `C=CC(=O)N1CCN(c2nc(OCCN3CCC(F)(F)CC3)nc3c(F)c(-c4c(O)cccc4F)c(Cl)cc23)CC1` [Example I-38, 1-(4-(6-chloro-2-(2-(4,4-difluoro-piperidin-1-yl)ethoxy)-8-fluoro-7-(2-fluoro-6-hydroxyphenyl)quinazolin-4-yl)piperazin-1-yl) prop-2-en-1-one], for which the Binding % result (compounds of structure (I)) is recorded as “+++ (+++ indicates binding activity greater than 90%)”. On to `C=CC(=O)N1CCN(c2nc(OCCN(CC)CC)nc3c(F)c(-c4c(O)cccc4F)c(Cl)cc23)CC1` (atropisomer, axis not shown) [Example I-88, (R)-1-(4-(6-chloro-2-(2-(diethylamino)ethoxy)-8-fluoro-7-(2-fluoro-6-hydroxyphenyl)quinazolin-4-yl)piperazin-1-yl) prop-2-en-1-one], for which the Binding % entry (compounds of structure (I)) is recorded as “+ (+ indicates binding activity up to 50%)”. Still for that read-out and setting: the result for `C=CC(=O)N1CCN(c2nc(OC)nc3c(OC)c(-c4c(O)cccc4F)c(Cl)cc23)CC1` [Example I-154, 1-(4-(6-chloro-7-(2-fluoro-6-hydroxyphenyl)-2,8-dimethoxy-quinazolin-4-yl)piperazin-1-yl) prop-2-en-1-one] reads “+++ (+++ indicates binding activity greater than 90%)”; that for `C=CC(=O)N1CCN(c2nc(OCC3CCOCC3)nc3c(F)c(-c4c(C)ccc5[nH]ncc45)c(Cl)cc23)CC1` [Example I-15, 1-(4-(6-chloro-8-fluoro-7-(5-methyl-1H-indazol-4-yl)-2-((tetrahydro-2H-pyran-4-yl)methoxy)quinazolin-4-yl)piperazin-1-yl)prop-2-en-1-one], “+++ (+++ indicates binding activity greater than 90%)”; that for `C=CC(=O)N1CCN(c2nc(NC3CN(c4ncccn4)C3)nc3c(F)c(-c4c(O)cccc4F)c(Cl)cc23)CC1` [Example I-182, 1-(4-(6-chloro-8-fluoro-7-(2-fluoro-6-hydroxyphenyl)-2-((1-(pyrimidin-2-yl)azetidin-3-yl)amino)quinazolin-4-yl)piperazin-1-yl) prop-2-en-1-one], “+ (+ indicates binding activity up to 50%)”.

As for `C=CC(=O)N1CCN(c2nc(NC3CC4CCC(C3)N4C3CC3)nc3c(F)c(-c4c(C)ccc5[nH]ncc45)c(Cl)cc23)CC1` (centres unmarked) [Example I-188, 1-(4-(6-chloro-2-((8-cyclopropyl-8-azabicyclo[3.2.1]octan-3-yl)amino)-8-fluoro-7-(5-methyl-1H-indazol-4-yl)quinazolin-4-yl)piperazin-1-yl) prop-2-en-1-one], the Binding % result (compounds of structure (I)) is listed as “++ (++ indicates binding activity from 50 to 90%)”. On the same count and under the same terms, the result for `C=C(Cl)C(=O)N1CCN(c2nc(OCCN3CCOCC3)nc3c(F)c(-c4cc(O)cc5ccccc45)c(Cl)cc23)CC1` [Example I-73, 2-chloro-1-(4-(6-chloro-8-fluoro-7-(3-hydroxy-naphthalen-1-yl)-2-(2-morpholino-ethoxy)quinazolin-4-yl)piperazin-1-yl)prop-2-en-1-one] reads “+++ (+++ indicates binding activity greater than 90%)”. `C=CC(=O)N1CCN(c2nc(OC3CCN(C(C)=O)CC3)nc3c(F)c(-c4c(O)cccc4F)c(Cl)cc23)CC1` [Example I-115, 1-(4-(2-(1-acetylpiperidin-4-yloxy)-6-chloro-8-fluoro-7-(2-fluoro-6-hydroxyphenyl)quinazolin-4-yl)piperazin-1-yl) prop-2-en-1-one]: the Binding % entry (compounds of structure (I)) is on record as “+++ (+++ indicates binding activity greater than 90%)”.
